This note sets out measurements from US11208475B1, “Methods and compositions for treating inflammatory or autoimmune diseases or conditions using serotonin receptor activators” (Flagship Pioneering Innovations V, Inc., priority 2018, dated 2021).

Each structure is given as a SMILES string.

This experiment has as its system macrophages. In words: IL-8 secretion by macrophages incubated with serotonin receptor agonists (bead-based immunoassay). Type of experiment: cell-based. As to conditions: human CD14+ monocyte-derived macrophages (M-CSF), supernatant. How it is done: CD14+ monocytes were isolated from human PBMCs using negative magnetic bead selection (Stemcell Technologies) on day 0. Cells were cultured with M-CSF to differentiate monocytes to macrophages. On day 6, cells were treated with LP44 (high affinity 5-HT7 agonist), BW 723C86 hydrochloride (5-HT2B agonist), MK 212 hydrochloride (5-HT2C agonist) (Sigma-Aldrich), at concentrations 1 μM and 10 μM overnight. Supernatant was collected and bead-based immunoassays (Biolegend) were performed to detect changes in cytokine secretion.
Across multiple human donors, secretion of the inflammatory cytokine, IL8, by macrophages was decreased after addition of each of the HTR2B, HTR2C, and HTR7 agonists, as show in Table 17 below.

Consider `CSc1ccccc1N1CCN(CCCCCC(=O)NC2CCCc3ccccc32)CC1` (stereo not drawn) [LP44], for which the “Fold change of IL-8 (Normalized to Macs + LPS with no compound treatment)” value is, setting by setting: (compound 1 μM overnight) 0.340; (compound 10 μM overnight) 0.427.
For `CC(N)Cc1c[nH]c2ccc(OCc3cccs3)cc12.Cl` (stereo not drawn) [BW723086], the “Fold change of IL-8 (Normalized to Macs + LPS with no compound treatment)” value (compound 1 μM overnight) is listed as 0.693 and the “Fold change of IL-8 (Normalized to Macs + LPS with no compound treatment)” value (compound 10 μM overnight) was 0.527.
In the case of `Clc1cncc(N2CCNCC2)n1` [MK212], the “Fold change of IL-8 (Normalized to Macs + LPS with no compound treatment)” value (compound 1 μM overnight) amounted to 0.502 and the “Fold change of IL-8 (Normalized to Macs + LPS with no compound treatment)” value (compound 10 μM overnight) was determined as 0.484.
